Like-named read-outs stand apart in the source and are kept apart here.
Assays:
adult ewes = test system: adult ewes
Experimental: A methane emission study was carried out to determine the impact of feeding different doses of the feed additive would have on enteric fermentation. […] Any refused concentrate/additive was recorded. Sheep then had ad libitum access to grass silage and water throughout the day, with the amount of silage eaten recorded for each animal.
Body weights of all animals were recorded at the start of the experiment (‘week 1’) and after 49 days (‘week 7’).
Methane emissions were recorded through use of Portable Accumulation Chambers (PAC). Briefly: these are sealed chambers in which individual animals remain for a 1 hour time period. During this time period methane, oxygen and carbon dioxide measurements are taken at 0 minutes, 25 minutes and 50 minutes. […] Animals were placed in the PAC on week 1 and […] as defined above. 12 adult ewes, at least 2 years old, were divided into 2 groupings of 6 sheep. One group received a 2.355 g dose of Urea-Hydrogen Peroxide (termed Group 1) per day and the other received a 4.71 g dose of Urea-Hydrogen Peroxide (termed Group 2) per day.
Control Group: Sheep were fed 0.5 kg of feed concentrate comprising animal feed, on a daily basis over a 7 week period.
Treatment Group 1 (UHP 0.5X): Sheep were fed 0.5 kg of feed concentrate comprising the same animal feed as the control group and 0.15% (by weight) of urea hydrogen peroxide, on a daily basis over a 7 week period.
Treatment Group 2 (UHP 1X): Sheep were fed 0.5 kg of feed concentrate comprising the same animal feed as the control group and 0.3% (by weight) of urea hydrogen peroxide, on a daily basis over a 7 week period.

[1] = for Average Weight Gain: day 1 to day 49; for Average Daily DMI: group average; for Gain:Feed Ratio: group basis; for Average Finishing Weight / Average Starting Weight: group of 20 sheep
Experimental: Experimental: A study was conducted to determine what impact consumption of the feed additives would have on animal performance. It is estimated that between 2-12% of the energy content of animal feed is lost through enteric fermentation. This study examined whether though potential reductions in enteric fermentation additional energy would be diverted to the animal, with this being seen via an improved feed:gain metric, that is the ability of the animal to improve the rate of increase in its body weight per unit of feed eaten. 60 adult ewes (average starting body weight of approximately 80 kg) were divided into 3 equal groups of 20 sheep per group. Animals were fed as described in the Animal Study—Methane Emissions above. Animals were grouped into a control group (no feed additive given); treatment group 1 (2.355 g Urea-Hydrogen Peroxide given daily); treatment group 2 (4.71 g Urea-Hydrogen Peroxide given daily).
Animals were weighed at the start of the experiment (day 1) and at the end of the study (day 49). All feed (DMI) consumed was weighed and recorded throughout the study.
A feed:gain ratio was calculated as follows: […]
The ratio of weight gain to DMI was then calculated to determine the feed efficiency of each animal.

cattle = experiment: In vivo rumen ORP in cattle with ORP measurement bolus
Experimental: Experimental: An in vivo study was conducted to investigate the effect of feed additives of the invention on rumen ORP in cattle. The study involved administering an ORP measurement bolus to each cow to allow for an ORP reading to be recorded every 10 minutes, dividing the cattle into three groups: a control group (receiving feed without any feed additive of the invention), low dose (receiving 100 g CaO2 per day along with feed—with the additive being delivered at a single morning feeding) and a high dose group (receiving 200 g CaO2 per day along with feed—with the additive being delivered at a single morning feeding). The rumen was opened after approximately 450 hours.
The results of this study are given in FIG. 20 which charts the ORP level in the rumen (mV) over time measured at 10-minute intervals for the control group, the low-dose group, and the high-dose group respectively.
An average baseline ORP reading measured for the animals from the control group is about −440 mV. This average baseline ORP reading of about −440 mV may be useful to aid comparison between control ORP and increases in ORP due to the animals consuming the additive. After approximately 450 hours the rumen was opened and the ORP results after this time point should be disregarded.

[2] = Treatment Group 1, 2.355 g UHP per day
[3] = Treatment Group 1, 2.355 g UHP per day, Week 1
[4] = Treatment Group 1, 2.355 g UHP per day, Week 7
[5] = Treatment Group 2, 4.71 g UHP per day
[6] = Treatment Group 2, 4.71 g UHP per day, Week 1
[7] = Treatment Group 2, 4.71 g UHP per day, Week 7

For `NC(N)=O.OO` [urea hydrogen peroxide], the “CH4/BW Difference week 7 versus week 1” value (adult ewes; [2]) was 11.24%, the “CH4/day Difference week 7 versus week 1” value (adult ewes; [2]) was 5.828% and the “CH4/BW (group mean)” value (adult ewes; [3]) was 0.3705 litres of methane per kg of animal body weight. The “CH4/day (group mean)” value (adult ewes; [3]) was 29.32, the “CH4/BW (group mean)” value (adult ewes; [4]) was 0.3288 litres of methane per kg of animal body weight and the “CH4/day (group mean)” value (adult ewes; [4]) was 27.61. The “CH4/BW Difference week 7 versus week 1” value (adult ewes; [5]) was 22.61%, the “CH4/day Difference week 7 versus week 1” value (adult ewes; [5]) was 18.04% and the “CH4/BW (group mean)” value (adult ewes; [6]) was 0.3753 litres of methane per kg of animal body weight. For the same compound, the “CH4/day (group mean)” value (adult ewes; [6]) was 29.82, the “CH4/BW (group mean)” value (adult ewes; [7]) was 0.2905 litres of methane per kg of animal body weight and the “CH4/day (group mean)” value (adult ewes; [7]) was 24.44. For the same compound, the “methane production by week 7” value (adult ewes; treatment groups, feed concentrate comprising urea hydrogen peroxide) was “significant decrease in methane production”, the “Average Weight Gain” value ([1]; Treatment 1, 2.355 g UHP daily) was 5.65 kg and the “Average Daily DMI” value ([1]; Treatment 1, 2.355 g UHP daily) was 1.6345 kg. For the same compound, the “Gain:Feed Ratio” value ([1]; Treatment 1, 2.355 g UHP daily) was 0.0864, the “Average Finishing Weight” value ([1]; Treatment 1, 2.355 g UHP daily) was 82.55 kg and the “Average Starting Weight” value ([1]; Treatment 1, 2.355 g UHP daily) was 76.9 kg. For the same compound, the “Average Weight Gain” value ([1]; Treatment 2, 4.71 g UHP daily) was 6.325 kg, the “Average Daily DMI” value ([1]; Treatment 2, 4.71 g UHP daily) was 1.516 kg and the “Gain:Feed Ratio” value ([1]; Treatment 2, 4.71 g UHP daily) was 0.1043. The “Average Finishing Weight” value ([1]; Treatment 2, 4.71 g UHP daily) was 81.275 kg, the “Average Starting Weight” value ([1]; Treatment 2, 4.71 g UHP daily) was 74.95 kg and the “weight gain versus control group” value ([1]; treatment groups) was “gained more weight on average than the control group”.

With `[Ca+2].[O-][O-]` [CaO2, calcium peroxide] the “increase of ORP in the rumen after each morning feed” value (cattle; 100 g or 200 g CaO2 per day with feed, sustained period of at least one hour) was “at least +100 mV” and the “initial period (correction phase) of the ORP profile” value (cattle; 100 g or 200 g CaO2 per day, temporary reductions below baseline between administrations) was 300 to 350 h.

— patent publication US20240374635A1, “COMPOSITIONS AND METHODS” (Glasport Bio Limited, priority 2021, published 2024)
